assay: method code SF, from DOI: 10.1021/jm00266a011, PMID: 4583365; details: not given

Point of comparison: `CN(Cc1ccccc1)/N=N/c1nc[nH]c1C(N)=O`, logP 1.54. Against it:
- N#CCC(=O)NC(CO)C(O)c1ccc([N+](=O)[O-])cc1 (stereo not given) — lower, -0.22

assay: method code SF-AS, from DOI: 10.1021/jm00266a011, PMID: 4583365; details: not given

Point of comparison: `O=C(CI)N[C@H](CO)[C@H](O)c1ccc([N+](=O)[O-])cc1`, logP 1.03. Against it:
- CCC(CC)C(=O)N[C@H](CO)[C@H](O)c1ccc([N+](=O)[O-])cc1 — higher, 1.71
- N#CC(C(=O)NC(CO)C(O)c1ccc([N+](=O)[O-])cc1)c1ccccc1 (stereo not given) — higher, 1.47
- O=C(NC(CO)C(O)c1ccc([N+](=O)[O-])cc1)C(F)(F)F (stereo not given) — within 0.2 log units, 1.07
- CCCCCCCCN(C)/N=N/c1nc[nH]c1C(N)=O — higher, 3.22
- CC(=O)NC(CO)C(O)c1ccc([N+](=O)[O-])cc1 (stereo not given) — lower, -0.03
- O=C(NC(CO)C(O)c1ccc([N+](=O)[O-])cc1)C(Cl)(Cl)Cl (stereo not given) — higher, 1.97
- O=C(NC(CO)C(O)c1ccccc1)C(Cl)Cl (stereo not given) — within 0.2 log units, 0.94
- O=C(N[C@H](CO)[C@H](O)c1ccc(Br)cc1)C(Cl)Cl — higher, 1.87
- CC(Cl)C(=O)NC(CO)C(O)c1ccc([N+](=O)[O-])cc1 (stereo not given) — within 0.2 log units, 0.98
- CCCC(=O)NC(CO)C(O)c1ccc([N+](=O)[O-])cc1 (stereo not given) — within 0.2 log units, 0.87
- O=C(CCl)NC(CO)C(O)c1ccc([N+](=O)[O-])cc1 (stereo not given) — lower, 0.59
- O=C(CF)NC(CO)C(O)c1ccc([N+](=O)[O-])cc1 (stereo not given) — lower, 0.15
- O=C(N[C@H](CO)[C@H](O)c1ccc([N+](=O)[O-])cc1)C(F)F — lower, 0.42
- CC(C)C(=O)N[C@H](CO)[C@H](O)c1ccc([N+](=O)[O-])cc1 — within 0.2 log units, 0.88
- O=C(N[C@H](CO)[C@H](O)c1ccc(-c2ccccc2)cc1)C(Cl)Cl — higher, 2.86
- N#Cc1ccc([C@@H](O)[C@@H](CO)NC(=O)C(Cl)Cl)cc1 — higher, 1.29
- O=C(N[C@H](CO)[C@H](O)c1ccc([N+](=O)[O-])cc1)C(Br)(Br)Br — higher, 2.17
- O=C(N[C@@H](CO)[C@@H](O)c1ccc(I)cc1)C(Cl)Cl (relative stereo) — higher, 2.22
- O=C(Cc1ccccc1)NC(CO)C(O)c1ccc([N+](=O)[O-])cc1 (stereo not given) — higher, 1.52
- O=C(NC(CO)C(O)c1ccc([N+](=O)[O-])cc1)c1ccccc1 (stereo not given) — higher, 1.63
- O=C(N[C@H](CO)[C@H](O)c1ccc([N+](=O)[O-])cc1)C(Br)Br — higher, 1.36

same assay, conditions: pH 7.4

Compound `CC(C)(C)C(=O)N[C@H](CO)[C@H](O)c1ccc([N+](=O)[O-])cc1` has a logD of 1.33.
